Assays:
wild oat [1] = assay: Test Example 5: herbicidal effect by foliage application, plastic box (Table 20, symbol I); assay type: in vivo, wild oat (Avena fatua); details: foliage application, 320 g/ha, three weeks after application
How it was run: (§1)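 Plants were sown into sterilized diluvial soil under about 1.5 cm cover and kept in a greenhouse at 25° C. to 30° C. Fourteen days on, foliage received an even spray of the diluted emulsion. Herbicidal or crop effect was judged three weeks afterwards.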

redroot pigweed [2] = assay: Test Example 4: herbicidal effect by soil treatment (Table 19, symbol N); assay type: in vivo, redroot pigweed (Amaranthus retroflexus); details: amount of applied herbicide 320 g/ha
How it was run: (§2)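 Pre-emergence style soil spray: seeds under ~1.5 cm sterilized diluvial soil received a uniform coat of emulsion diluted to the predetermined herbicide amount. Greenhouse 25–30° C; readout at week three on previously defined criteria.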

redroot pigweed [3] = assay: Test Example 5: herbicidal effect by foliage application, plastic box (Table 20, symbol N); assay type: in vivo, redroot pigweed (Amaranthus retroflexus); details: foliage application, 320 g/ha, three weeks after application
How it was run: as §1

Japanese bulrush = assay: Test Example 1: herbicidal activity, application before weed generation under submerged conditions (Table 16, symbol B); assay type: in vivo, Japanese bulrush (Schoenoplectus juncoides); details: amount of applied herbicide 320 g/ha
How it was run: (§3)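 Alluvial soil was flooded to 4 cm depth, weed seeds were sown mixed and 2.5-leaf rice seedlings were transplanted. On sowing day, the compound's emulsion, diluted in water to a set dose, was applied to the water surface. Plants grew at 25–30 °C and were scored 0–5 after three weeks.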

barnyard grass [4] = assay: Test Example 5: herbicidal effect by foliage application, plastic box (Table 20, symbol H); assay type: in vivo, barnyard grass (Echinochloa crus-galli); details: foliage application, 320 g/ha, three weeks after application
How it was run: as §1

barnyard grass [5] = assay: Test Example 4: herbicidal effect by soil treatment (Table 19, symbol H); assay type: in vivo, barnyard grass (Echinochloa crus-galli); details: amount of applied herbicide 320 g/ha
How it was run: as §2

velvetleaf [6] = assay: Test Example 4: herbicidal effect by soil treatment (Table 19, symbol M); assay type: in vivo, velvetleaf (Abutilon theophrasti); details: amount of applied herbicide 320 g/ha
How it was run: as §2

blackgrass [7] = assay: Test Example 5: herbicidal effect by foliage application, plastic box (Table 20, symbol J); assay type: in vivo, blackgrass (Alopecurus myosuroides); details: foliage application, 320 g/ha, three weeks after application
How it was run: as §1

chickweed = assay: Test Example 5: herbicidal effect by foliage application, plastic box (Table 20, symbol P); assay type: in vivo, common chickweed (Stellaria media); details: foliage application, 320 g/ha, three weeks after application
How it was run: as §1

Chinese sprangletop = assay: Test Example 3: herbicidal effect by foliage application, Wagner pot (Table 18, symbol D); assay type: in vivo, chinese sprangletop (Leptochloa chinensis); details: 320 g/ha
How it was run: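 Plants were sown in alluvial soil held under 0.1–0.5 cm standing water and grown 14 days in a greenhouse at 25–30 °C. An emulsifiable formulation, water-diluted to the set dose, was then sprayed onto the foliage, and effects were scored three weeks later using previously defined criteria.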

velvetleaf [8] = assay: Test Example 5: herbicidal effect by foliage application, plastic box (Table 20, symbol M); assay type: in vivo, velvetleaf (Abutilon theophrasti); details: foliage application, 320 g/ha, three weeks after application
How it was run: as §1

lambsquarters = assay: Test Example 4: herbicidal effect by soil treatment (Table 19, symbol O); assay type: in vivo, lambsquarters (Chenopodium album); details: amount of applied herbicide 320 g/ha
How it was run: as §2

blackgrass [9] = assay: Test Example 4: herbicidal effect by soil treatment (Table 19, symbol J); assay type: in vivo, blackgrass (Alopecurus myosuroides); details: amount of applied herbicide 320 g/ha
How it was run: as §2

oval-leafed pondweed = assay: Test Example 1: herbicidal activity, application before weed generation under submerged conditions (Table 16, symbol C); assay type: in vivo, oval-leafed pondweed (Monochoria vaginalis); details: amount of applied herbicide 320 g/ha
How it was run: as §3

southern crabgrass = assay: Test Example 4: herbicidal effect by soil treatment (Table 19, symbol F); assay type: in vivo, southern crabgrass (Digitaria ciliaris); details: amount of applied herbicide 320 g/ha
How it was run: as §2

wild oat [10] = assay: Test Example 4: herbicidal effect by soil treatment (Table 19, symbol I); assay type: in vivo, wild oat (Avena fatua); details: amount of applied herbicide 320 g/ha
How it was run: as §2

SMILES | I: wild oat, herbicidal effect grade (wild oat [1]) | N: redroot pigweed, herbicidal effect grade (redroot pigweed [3]) | Herbicidal effect, B: Japanese bulrush (Japanese bulrush) | H: barnyard grass, herbicidal effect grade (barnyard grass [4]) | J: blackgrass, herbicidal effect grade (blackgrass [7]) | P: chickweed, herbicidal effect grade (chickweed) | herbicidal effect on Chinese sprangletop (D) (Chinese sprangletop) | M: velvetleaf, herbicidal effect grade (velvetleaf [8]) | Herbicidal effect, C: oval-leafed pondweed (oval-leafed pondweed) | also measured
COc1ccccc1-c1sc2cc(OCCSC)ccc2c1-c1c(O)c(C)nn(C)c1=O [3-125] | 5 (Herbicidal rate of 90% or more (almost completely withered)) | 5 (Herbicidal rate of 90% or more (almost completely withered)) | 3 (Herbicidal rate of 40% or more and less than 70%) | 3 (Herbicidal rate of 40% or more and less than 70%) | 5 (Herbicidal rate of 90% or more (almost completely withered)) | 5 (Herbicidal rate of 90% or more (almost completely withered)) | 3 (Herbicidal rate of 40% or more and less than 70%) | 4 (Herbicidal rate of 70% or more and less than 90%) | 1 (Herbicidal rate of 5% or more and less than 20%) | N: redroot pigweed, herbicidal effect grade (redroot pigweed [2]): 5 (Herbicidal rate of 90% or more (almost completely withered)); H: barnyard grass, herbicidal effect grade (barnyard grass [5]): 0 (Herbicidal rate of 5% or less (almost no effect)); M: velvetleaf, herbicidal effect grade (velvetleaf [6]): 4 (Herbicidal rate of 70% or more and less than 90%); O: lambsquarters, herbicidal effect grade (lambsquarters): 5 (Herbicidal rate of 90% or more (almost completely withered)); J: blackgrass, herbicidal effect grade (blackgrass [9]): 5 (Herbicidal rate of 90% or more (almost completely withered)); F: southern crabgrass, herbicidal effect grade (southern crabgrass): 3 (Herbicidal rate of 40% or more and less than 70%); I: wild oat, herbicidal effect grade (wild oat [10]): 0 (Herbicidal rate of 5% or less (almost no effect))
COc1ccccc1-c1sc2cc(OCC3CCCO3)ccc2c1-c1c(O)c(C)nn(C)c1=O (centres unmarked) [3-133] | 4 (Herbicidal rate of 70% or more and less than 90%) | 5 (Herbicidal rate of 90% or more (almost completely withered)) | 3 (Herbicidal rate of 40% or more and less than 70%) | 3 (Herbicidal rate of 40% or more and less than 70%) | 5 (Herbicidal rate of 90% or more (almost completely withered)) | 5 (Herbicidal rate of 90% or more (almost completely withered)) | 3 (Herbicidal rate of 40% or more and less than 70%) | 3 (Herbicidal rate of 40% or more and less than 70%) | 4 (Herbicidal rate of 70% or more and less than 90%) | Herbicidal effect by soil treatment, N: redroot pigweed (redroot pigweed [2]): 5 (Herbicidal rate of 90% or more (almost completely withered)); Herbicidal effect by soil treatment, H: barnyard grass (barnyard grass [5]): 1 (Herbicidal rate of 5% or more and less than 20%); Herbicidal effect by soil treatment, M: velvetleaf (velvetleaf [6]): 1 (Herbicidal rate of 5% or more and less than 20%); Herbicidal effect by soil treatment, O: lambsquarters (lambsquarters): 5 (Herbicidal rate of 90% or more (almost completely withered)); Herbicidal effect by soil treatment, J: blackgrass (blackgrass [9]): 3 (Herbicidal rate of 40% or more and less than 70%); Herbicidal effect by soil treatment, F: southern crabgrass (southern crabgrass): 2 (Herbicidal rate of 20% or more and less than 40%); Herbicidal effect by soil treatment, I: wild oat (wild oat [10]): 1 (Herbicidal rate of 5% or more and less than 20%)

Reference: patent US20230085307A1, “PYRIDAZINONE COMPOUND AND HERBICIDE” (NISSAN CHEMICAL CORPORATION, priority 2019, published 2023)
